Measurements as given in patent US11213815B2, “Netwell assay plate system” (VIB VZW, priority 2016, dated 2022).

System: Arabidopsis plants
Assay: Arabidopsis netwell growth assay (rosette area over time, plants grown in soil in the multiwell plate system)
Format: in vivo
Description: In the Arabidopsis […] growth assay, plants were grown in soil inside a 24 well […] insert plate comprising a polystyrene porous membrane with a pore size of about 420 μm, which is positioned into a 24 well irrigation plate (FIG. 1, 2). Before sowing, seeds were vernalized in water at 4 degrees Celsius for two days. Afterwards, the […] insert plate was filled with fine potting soil, or optionally with soil mixed with sand (ratio 3:1). During this process the soil (or soil with sand) was compressed two times (or optionally three times for soil/sand) by applying a light pressure onto the individual […]. A “humidity control” soil sample was taken for determination of the initial soil water humidity (see later). Next, one mL of water was added to each of the wells of the irrigation plates. The […] insert plates were positioned inside the irrigation plates and the mounted plates were sealed with (plastic) tape surrounding the edges, to prevent excessive water evaporation from the boundary wells as compared to the center wells of the 24 well plate. This was a crucial step to avoid growth differences between plants in boundary and center wells, and to obtain reproducible results. Next, the weight of the combined insert and irrigation plates was recorded. When seeds were used as samples, during the sowing of the Arabidopsis seeds, one seed was distributed in each of the wells. For germination, the […] insert plates were covered with a standard multiwell cover plate which was sealed with parafilm and was placed inside a plant growth chamber. After three days, the covers were removed and the plants continued to grow at normal atmospheric conditions. At 7 days after sowing, or when the appropriate plant stage was reached (e.g. 7 and 10 or 5 and 7 days), the plants received a (chemical) treatment. Therefore, 0.5 (optionally 0.8 mL for soil with sand) of a (chemical-containing) solution was added to each of the wells via the corresponding access holes. Each plant sample receives the supplied (same) amount of (chemical) solution. In the days following the treatment, the plants were again irrigated with water to maintain a soil water humidity of 3.5 (or optionally 0.95 for soil with sand) (see below). In the 24 well format the growth of Arabidopsis plants was typically followed for about 15 days, during which image analysis procedures were used to follow the growth of the individual plant samples over time and to quantify the growth response of these plants in response to the specific (chemical) treatments. The initial soil water humidity was determined by first drying the “humidity control” soil sample in an oven at 60 degrees Celsius, to obtain the “dry weight”. Next, taking into account the weight of the empty irrigation plates, the empty […] insert plates, and the current weight of the combined insert and irrigation plates, water was added to each of the wells to reach a “soil water humidity” of “3.5 gram water per gram of dry soil” or “3.5” (optionally, when soil with sand was used: “0.95 gram water per gram of dry soil (with sand)” was used as initial soil water humidity value). Water was added into the irrigation plate wells through the access holes present in the corresponding […] insert plate wells using a repetition pipet. Due to equal evaporation of water from individual wells within one insert plate, each well of the irrigation plate received the same amount of water, rounded to 100 μL. The water, added to the wells in the irrigation plates, is taken up by the soil present in the hollow chambers of the […] insert plate wells, through the mesh by capillary forces (FIG. 3B). This irrigation was repeated on a daily basis to prevent excessive drying of the soil in the wells. This watering regime is suitable for frequently used Arabidopsis growth conditions, but can be altered and further optimized when a plant drought-stress response is the desired testing regime. Plants were grown as described in the above […] assay method. […]

SMILES: CC(C)(C)[C@@H](O)[C@@H](Cc1ccc(Cl)cc1)n1cncn1 (racemic) [Paclobutrazol]
- effect on plant growth (rosette area), dose response (Example 6, 0.8 mL at 7 and 10 DAS, Paclobutrazol 10, 20, 100 μM vs 0.1% DMSO, FIG. 8B): plant growth retarding effect

SMILES: c1ccc(CNc2ncnc3nc[nH]c23)cc1 [BAP, 6-Benzylaminopurine]
- effect on plant growth (average projected rosette area over time) (Example 2, 0.5 mL treatment solution at 8 DAS, 10 μM Kresoxim-methyl or 10 μM 6-Benzylaminopurine, imaging 4-16 DAS, vs water control, FIG. 4): shoot growth inhibition

SMILES: O=C(O)Cc1cccc2ccccc12 [NAA, 1-Naphthaleneacetic acid]
- rosette size versus NAA concentration (Example 5, 0.8 mL at 7 and 10 DAS, 1, 10, 20, 100 μM NAA vs DMSO vehicle, imaging 4-14 DAS, FIG. 7B): The higher the concentration of NAA during the treatment, the smaller the rosette size
- maximal inhibitory concentration (Example 5, rosette growth, concentration at which maximal inhibition was probably already reached): ≤ 50 µM

SMILES: O=C(O)/C=C\c1ccccc1 [cis-CA, cis-cinnamic acid]
- effect on plant growth (rosette area) at higher concentration, dose response (Example 6, 0.8 mL at 7 and 10 DAS, cis-CA 20, 50, 100 μM vs 0.1% DMSO, FIG. 8A): plant growth retarding effect
- effect on plant growth (rosette area) at low concentration (Example 6, 0.8 mL at 7 and 10 DAS, cis-CA at 1 (unit not given) vs 0.1% DMSO, FIG. 8A): slightly positive effect
- toxicity for the plant at higher concentration (Example 6, cis-CA at higher concentration (20, 50, 100 μM), FIG. 8A): rather toxic for the plant
